The record followed here is paper PMC4268911 (International Journal of Nanomedicine, 2014).

One data set relates to MCF-7 cells. Nature of the data set: In vitro cytotoxicity of conjugate, MTS-based assay. It is filed as cell-based, human. Conditions: MCF-7, 0–200 μg mL−1 polymer, 24 hours. A general note: Tetrazolium assays rely on reduction of a dye to a coloured formazan, in cell work by metabolically active cells.
The subject of another data set is MDAMB 231 cells. The description is as above. Type of data set: cell-based, human. Conditions: MDAMB 231, 0–200 μg mL−1 polymer, 24 hours.

Consider Low-molecular-weight heparin [LMWH], for which the “cytotoxicity (cell viability)” value in the data set on MCF-7 cells and in the data set with MDAMB 231 cells was “no severe in vitro cytotoxicity” throughout.
